The record followed here is patent US7227020B2, “Azaindoles” (Aventis Pharma Limited, priority 1999, dated 2007).

With `c1cncc(OCCCn2cc(-c3cc4nccnc4[nH]3)c3ccccc32)c1` [Example 6, 6-{1-[3-(Pyridin-3-yloxy)-propyl]-1H-indol-3-yl}-5H-pyrrolo[2,3-b]pyrazine], the melting point (in general, the temperature, or range, at which the solid turns liquid) was 208 to 209 °C. Turning to `COc1ccc2[nH]cc(-c3cc4nccnc4[nH]3)c2c1` [Example 11, 6-(5-Methoxy-1H-indol-3-yl)-5H-pyrrolo[2,3-b]pyrazine], the melting point lay in the range of 268 to 271 °C.

The compound `COc1ccc2c(c1)c(-c1cc3nccnc3[nH]1)cn2CC(=O)N1CCOCC1` [Example 12, 2-[5-Methoxy-3-(5H-pyrrolo[2,3-b]pyrazin-6-yl)-indol-1-yl]-1-morpholin-4-yl-ethanone] returned a melting point of 263 to 267 °C. `Cn1cc(-c2cc3cccnc3[nH]2)c2cc(N)ccc21` [Example 18, 1-Methyl-3-(1H-pyrrolo[2,3-b]pyridin-2-yl)-1H-indol-5-ylamine]: the melting point was 247 to 248 °C. The compound `CC(C)(C)c1ccc(-c2[nH]c3nccnc3c2CCCO)cc1` [Example 26, 3-[6-(4-tert-Butyl-phenyl)-5H-pyrrolo[2,3-b]pyrazin-7-yl]-propan-1-ol] had a melting point of 187 to 189 °C.

The compound `CCOC(=O)COc1cc(-c2cc3nccnc3[nH]2)ccc1OC` [Example 27, [2-Methoxy-5-(5H-pyrrolo[2,3-b]pyrazin-6-yl)-phenoxy]acetic acid ethyl ester] showed a melting point of 183 to 184 °C.
